Laboratory results reported in patent US9556165B2 (priority 2012, dated 2017).
Values after ≈ are worked out from the molar mass of the structure shown.

Legend:
Type in all cases: cell-based
E. coli ATCC25922 = experiment: MIC determination, broth microdilution (CLSI); details: for MIC: Escherichia coli, ATCC25922, strain 1
K. pneumoniae 60 = experiment: MIC determination, broth microdilution (CLSI); details: for MIC: Klebsiella pneumoniae, 60, strain 2
E. cloacae 34654 = experiment: MIC determination, broth microdilution (CLSI); details: for MIC: Enterobacter cloacae, 34654, strain 3
C. freundii K21/3034 = experiment: MIC determination, broth microdilution (CLSI); details: for MIC: Citrobacter freundii, K21/3034, strain 4
M. morganii 126/3048 = experiment: MIC determination, broth microdilution (CLSI); details: for MIC: Morganella morganii, 126/3048, strain 5
P. aeruginosa PAO1 = experiment: MIC determination, broth microdilution (CLSI); details: for MIC: Pseudomonas aeruginosa, PAO1, strain 6
[1] = tested on: P. aeruginosa 2297 (AmpC wt); experiment: MIC determination, broth microdilution (CLSI); details: for MIC: Pseudomonas aeruginosa, strain 7
[2] = tested on: P. aeruginosa 2297-con (AmpC derepressed); experiment: MIC determination, broth microdilution (CLSI); details: for MIC: Pseudomonas aeruginosa, read-out: strain 8 MIC, strain 8
A. baumannii ATCC15308 = experiment: MIC determination, broth microdilution (CLSI); details: for MIC: Acinetobacter baumannii, ATCC15308, strain 9
S. maltophilia ICB7569 = experiment: MIC determination, broth microdilution (CLSI)
S. aureus 133 = experiment: MIC determination, broth microdilution (CLSI); details: for MIC: Staphylococcus aureus, 133, strain 11, read-out: strain 11 MIC
M. catarrhalis ICB489 = experiment: MIC determination, broth microdilution (CLSI); details: for MIC: Moraxella catarrhalis, ICB489, strain 12
H. influenzae ATCC 49247 = experiment: MIC determination, broth microdilution (CLSI); details: for MIC: Haemophilus influenzae, ATCC49247, strain 13, read-out: strain 13 MIC
B. fragilis 6688 = experiment: MIC determination, broth microdilution (CLSI); details: for MIC: Bacteroides fragilis, 6688, strain 15, read-out: strain 15 MIC
C. perfringens DSM756 = experiment: microbe, parasite or virus in culture; details: for MIC: Clostridium perfringens, DSM756, read-out: strain 16 MIC, strain 16
E. coli J62 = experiment: MIC determination, broth microdilution (CLSI); details: for MIC: Escherichia coli, J62, strain 17, read-out: strain 17 MIC
E. coli J62-TEM-3 = experiment: MIC determination, broth microdilution (CLSI); details: for MIC: Escherichia coli, J62TEM3, read-out: strain 18 MIC, strain 18
strain 19 = experiment: MIC determination, broth microdilution (CLSI)
strain 20 = experiment: MIC determination, broth microdilution (CLSI)
strain 21 = experiment: MIC determination, broth microdilution (CLSI)
S. pneumoniae 113 = experiment: MIC determination, broth microdilution (CLSI); details: Streptococcus pneumoniae, 113, strain 14; read-out: strain 14 MIC

Row | SMILES | strain 1 MIC (E. coli ATCC25922) | strain 2 MIC (K. pneumoniae 60) | strain 3 MIC (E. cloacae 34654) | strain 4 MIC (C. freundii K21/3034) | strain 5 MIC (M. morganii 126/3048) | strain 6 MIC (P. aeruginosa PAO1) | MIC [1] | strain 8 MIC [2] | strain 9 MIC (A. baumannii ATCC15308) | strain 10 MIC (S. maltophilia ICB7569) | MIC (S. aureus 133) | strain 12 MIC (M. catarrhalis ICB489) | strain 13 MIC (H. influenzae ATCC 49247) | strain 16 MIC (C. perfringens DSM756) | strain 17 MIC (E. coli J62) | strain 18 MIC (E. coli J62-TEM-3) | strain 19 MIC (strain 19) | strain 20 MIC (strain 20) | strain 21 MIC (strain 21) | strain 11 MIC (S. aureus 133) | further results
1 | CC1(C)[C@H](NC(=O)/C(=N\OC(COc2ccc(C(=N)N)nc2)C(=O)O)c2csc(N)n2)C(=O)N1OS(=O)(=O)O (mixture of isomers) [Example 36A, (2S and 2R)-2-({[(1Z)-1-(2-Amino-1,3-thiazol-4-yl)-2-{[(3S)-2,2-dimethyl-4-oxo-1-(sulfo-oxy)azetidin-3-yl]amino}-2-oxoethylidene]amino}oxy)-3-[(6-carbamimidoylpyridin-3-yl)oxy]propanoic acid] | 0.125 µg/mL | ≦0.063 mg/L | ≦0.063 mg/L | 0.125 µg/mL | ≦0.063 mg/L | 4 µg/mL | 4 µg/mL | 4 µg/mL | 4 µg/mL | 2 µg/mL | ≤ 0.063 µg/mL | ≦0.063 mg/L | 0.5 µg/mL | 2 µg/mL | 0.125 µg/mL | 8 µg/mL | 0.125 µg/mL | ≦0.063 mg/L | 0.125 µg/mL | – | strain 15 MIC (B. fragilis 6688): 8 µg/mL
2 | CC1(C)[C@H](NC(=O)/C(=N\OC(COc2ccc(C(=N)N)c(O)c2)C(=O)O)c2csc(N)n2)C(=O)N1OS(=O)(=O)O (mixture of isomers) [Example 34A, (2S and 2R)-2-({[(1Z)-1-(2-Amino-1,3-thiazol-4-yl)-2-{[(3S)-2,2-dimethyl-4-oxo-1-(sulfo-oxy)azetidin-3-yl]amino}-2-oxoethylidene]amino}oxy)-3-(4-carbamimidoyl-3-hydroxyphenoxy)propanoic acid] | 1 µg/mL | 1 µg/mL | 0.5 µg/mL | 1 µg/mL | 0.25 µg/mL | 8 µg/mL | – | – | – | 8 µg/mL | – | ≦0.063 mg/L | 0.5 µg/mL | 2 µg/mL | 1 µg/mL | – | 0.5 µg/mL | 0.5 µg/mL | 0.5 µg/mL | ≦0.063 mg/L | strain 7 MIC [1]: 8 µg/mL; MIC [2]: 16 µg/mL; MIC (A. baumannii ATCC15308): 32 µg/mL; MIC (B. fragilis 6688): 16 µg/mL; MIC (E. coli J62-TEM-3): 32 µg/mL
3 | C[C@H]1[C@H](NC(=O)/C(=N\OCCOc2ccc(C(=N)N)cc2)c2csc(N)n2)C(=O)N1OCS(=O)(=O)O [Example 12, {[(2S,3S)-3-{[(2Z)-2-(2-Amino-1,3-thiazol-4-yl)-2-{[2-(4-carbamimidoylphenoxy)ethoxy]imino}acetyl]amino}-2-methyl-4-oxoazetidin-1-yl]oxy}methanesulfonic acid] | – | – | – | – | – | – | 8 µg/mL (≈ 14.8 µM) | – | – | – | 0.125 µg/mL (≈ 0.231 µM) | – | – | – | – | – | – | – | – | – | MIC (E. coli ATCC25922): 0.5 µg/mL (≈ 0.923 µM); MIC (K. pneumoniae 60): 0.25 µg/mL (≈ 0.462 µM); MIC (E. cloacae 34654): 0.5 µg/mL (≈ 0.923 µM); MIC (C. freundii K21/3034): 0.25 µg/mL (≈ 0.462 µM); MIC (M. morganii 126/3048): 0.25 µg/mL (≈ 0.462 µM); MIC (P. aeruginosa PAO1): 4 µg/mL (≈ 7.39 µM); MIC (A. baumannii ATCC15308): 4 µg/mL (≈ 7.39 µM); MIC (S. maltophilia ICB7569; Stenotrophomonas maltophilia, ICB7569, strain 10): 8 µg/mL (≈ 14.8 µM); MIC (M. catarrhalis ICB489): 0.25 µg/mL (≈ 0.462 µM); MIC (H. influenzae ATCC 49247): ≤ 0.063 µg/mL; MIC (S. pneumoniae 113): 32 µg/mL (≈ 59.1 µM); MIC (B. fragilis 6688): 8 µg/mL (≈ 14.8 µM); MIC (C. perfringens DSM756): 16 µg/mL (≈ 29.5 µM); MIC (E. coli J62): 0.5 µg/mL (≈ 0.923 µM); MIC (E. coli J62-TEM-3): 8 µg/mL (≈ 14.8 µM); MIC (strain 19): 0.5 µg/mL (≈ 0.923 µM); MIC (strain 20): 0.25 µg/mL (≈ 0.462 µM); MIC (strain 21): 0.25 µg/mL (≈ 0.462 µM)
4 | CC1(C)[C@H](NC(=O)/C(=N\OC(COc2ccc(C(=N)N)nc2)C(=O)O)c2csc(N)n2)C(=O)N1OS(=O)(=O)O (mixture of isomers) [Example 36B, (2S and 2R)-2-({[(1Z)-1-(2-Amino-1,3-thiazol-4-yl)-2-{[(3S)-2,2-dimethyl-4-oxo-1-(sulfo-oxy)azetidin-3-yl]amino}-2-oxoethylidene]amino}oxy)-3-[(6-carbamimidoylpyridin-3-yl)oxy]propanoic acid] | 2 µg/mL | 1 µg/mL | 2 µg/mL | 0.5 µg/mL | 2 µg/mL | 16 µg/mL | – | 32 µg/mL | 32 µg/mL | 16 µg/mL | – | 0.5 µg/mL | 4 µg/mL | 32 µg/mL | 4 µg/mL | 32 µg/mL | 2 µg/mL | 2 µg/mL | 2 µg/mL | 0.125 µg/mL | strain 15 MIC (B. fragilis 6688): 32 µg/mL
5 | CC1(C)[C@H](NC(=O)/C(=N\OC(COc2ccc(C(=N)N)cc2)C(=O)O)c2csc(N)n2)C(=O)N1OS(=O)(=O)O (mixture of isomers) [Example 27B, (2S and 2R)-2-({[(1Z)-1-(2-Amino-1,3-thiazol-4-yl)-2-{[(3S)-2,2-dimethyl-4-oxo-1-(sulfo-oxy)azetidin-3-yl]amino}-2-oxoethylidene]amino}oxy)-3-(4-carbamimidoylphenoxy)-propanoic acid] | 2 µg/mL | 1 µg/mL | 4 µg/mL | 1 µg/mL | 1 µg/mL | 16 µg/mL | – | 16 µg/mL | 16 µg/mL | 8 µg/mL | – | 0.25 µg/mL | 0.5 µg/mL | 32 µg/mL | 2 µg/mL | 8 µg/mL | 1 µg/mL | 2 µg/mL | 2 µg/mL | 0.125 µg/mL | strain 7 MIC [1]: 32 µg/mL; strain 15 MIC (B. fragilis 6688): 32 µg/mL
6 | Cc1cc(OCCO/N=C(\C(=O)N[C@@H]2C(=O)N(OS(=O)(=O)O)C2(C)C)c2csc(N)n2)ccc1C(=N)N [Example 13, (2Z)-2-(2-Amino-1,3-thiazol-4-yl)-2-{[2-(4-carbamimidoyl-3-methylphenoxy)ethoxy]imino}-N-[(3S)-2,2-dimethyl-4-oxo-1-(sulfooxy)azetidin-3-yl]ethanamide] | – | – | – | – | – | – | 16 µg/mL (≈ 28.8 µM) | – | – | – | ≤ 0.063 µg/mL | – | – | – | – | – | – | – | – | – | MIC (E. coli ATCC25922): 0.5 µg/mL (≈ 0.9 µM); MIC (K. pneumoniae 60): 1 µg/mL (≈ 1.8 µM); MIC (E. cloacae 34654): 1 µg/mL (≈ 1.8 µM); MIC (C. freundii K21/3034): 0.25 µg/mL (≈ 0.45 µM); MIC (M. morganii 126/3048): 0.5 µg/mL (≈ 0.9 µM); MIC (P. aeruginosa PAO1): 8 µg/mL (≈ 14.4 µM); MIC [2]: 8 µg/mL (≈ 14.4 µM); MIC (A. baumannii ATCC15308): 1 µg/mL (≈ 1.8 µM); MIC (M. catarrhalis ICB489): 0.125 µg/mL (≈ 0.225 µM); MIC (H. influenzae ATCC 49247): ≤ 0.063 µg/mL; MIC (S. pneumoniae 113): 4 µg/mL (≈ 7.2 µM); MIC (B. fragilis 6688): 4 µg/mL (≈ 7.2 µM); MIC (C. perfringens DSM756): 2 µg/mL (≈ 3.6 µM); MIC (E. coli J62): 0.5 µg/mL (≈ 0.9 µM); MIC (E. coli J62-TEM-3): 32 µg/mL (≈ 57.6 µM); MIC (strain 19): 0.5 µg/mL (≈ 0.9 µM); MIC (strain 20): 0.5 µg/mL (≈ 0.9 µM); MIC (strain 21): 0.5 µg/mL (≈ 0.9 µM)
7 | CC1(C)[C@H](NC(=O)/C(=N\OC(COc2ccc(C(=N)N)c(O)c2)C(=O)O)c2csc(N)n2)C(=O)N1OS(=O)(=O)O (mixture of isomers) [Example 34B, (2S and 2R)-2-({[(1Z)-1-(2-Amino-1,3-thiazol-4-yl)-2-{[(3S)-2,2-dimethyl-4-oxo-1-(sulfo-oxy)azetidin-3-yl]amino}-2-oxoethylidene]amino}oxy)-3-(4-carbamimidoyl-3-hydroxyphenoxy)propanoic acid] | 8 µg/mL | 8 µg/mL | 4 µg/mL | 8 µg/mL | 4 µg/mL | 32 µg/mL | – | 32 µg/mL | 32 µg/mL | 32 µg/mL | – | 0.5 µg/mL | 8 µg/mL | 32 µg/mL | 16 µg/mL | 32 µg/mL | 4 µg/mL | 4 µg/mL | 8 µg/mL | 0.25 µg/mL | strain 7 MIC [1]: 32 µg/mL
